Where two headings read alike, the source gives them in different places.
Columns and labels:
[1] = human, in vivo; cited from earlier work
[2] = cited from earlier work
[3] = Amide hydrolysis by minipig liver microsomes; details: 1 mg/ml protein, 0.5 µM amide, pH 7.4, up to 120 min, no NADPH
Source text: (§1) Pooled subcellular fractions of male Sprague-Dawley rat liver S9 fractions (10 donors), male Sprague-Dawley Aroclor 1254 induced rat liver S9 fractions (20 donors), human liver S9 fractions (mixed gender 10 donors), male Gottingen minipig liver microsomes (3 donors) and male Gottingen minipig liver S9 fractions (3 donors) were purchased from BioreclamationIVT (West Sussex, UK). Cryopreserved primary human hepatocytes (mixed gender 10 donors) were also purchased from BioreclamationIVT. Human CES1b, CES1c and CES2 Supersomes and human liver microsomes (mixed gender 150 donors) were purchased from Corning (Flintshire, UK). […]
(§2) LC-MS/MS analysis was performed using a Waters UPLC instrument with an Acquity^TM binary solvent manager, Acquity^TM 4-position heated column manager and 2777 Ultra High Pressure Autosampler coupled to a Xevo-TQ MS triple quadrupole mass spectrometer (Waters Ltd, Herts, UK) with an electrospray ionisation (ESI) source. […] Incubations where the total parent amide decreased below 80% of the t0 baseline sample or the amine metabolite was detected were determined to be hydrolysed.

[4] = Source text: as §1, §2
AADAC = details: cited from earlier work

For `CC(O)(CS(=O)(=O)c1ccc(F)cc1)C(=O)Nc1ccc(C#N)c(C(F)(F)F)c1` (stereo not shown) [bicalutamide, Bicalutamide], the hepatotoxicity [1] is listed as “few cases of hepatotoxicity”.

For `CC(=O)Nc1ccc(O)cc1` [paracetamol, Paracetamol], the “dose hydrolysed in humans in vivo” value [2] is given as 1–2%.

In the case of `CCC(=O)Nc1ccc(Cl)c(Cl)c1` [propanil, Propanil], the amide hydrolysis [3] is listed as “successful hydrolysis” and the “amide hydrolysis in humans in vivo” value ([2]; human) is listed as “undergo hydrolysis”.

In the case of `O=C(CCl)Nc1ccccc1` [2-chloro-N-phenylacetamide], the “change in rate of hydrolysis as a result of Aroclor 1254 induction” value [4] is reported as “enhanced rate of hydrolysis”.

In the case of `CC(C)C(=O)Nc1ccc([N+](=O)[O-])c(C(F)(F)F)c1` [flutamide, Flutamide], the “enzyme mainly responsible for hydrolysis” value (AADAC) is given as “AADAC”.

In the case of `CCCNC(C)C(=O)Nc1ccccc1C` (stereo not shown) [prilocaine, Prilocaine], the “amide hydrolysis in humans in vivo” value [2] is listed as “undergo hydrolysis”.

For `CC(=O)Nc1ccccc1` [acetanilide, Acetanilide], the “amide hydrolysis in humans in vivo” value [2] is listed as “has been observed” and the “dose hydrolysed in humans in vivo” value [2] is listed as “approximately 10%”.

For `Nc1ccc([N+](=O)[O-])c(C(F)(F)F)c1` [3-trifluoromethyl-4-nitroaniline], the hepatotoxicity [1] is given as “associated with hepatotoxicity”.
